# “Also recorded” adds a separate entry of the source.
# Columns and labels:
# [1] = system: cocaine self-administration; test: Cocaine self-administration in short access (ShA) and long access (LgA) rats; type: in vivo, rat
# [2] = system: cocaine self-administration; conditions: 30 minute pretreatment; limited (2 hour) daily drug access; cited from earlier work
# [3] = system: ethanol self-administration; conditions: cited from earlier work
# [4] = system: defensive withdrawal behavior; conditions: 20 mg/kg i.p.; cited from earlier work
# [5] = system: intracerebroventricular CRF-induced anxiogenic-like behavior; conditions: 20 mg/kg i.p.; cited from earlier work
# plasma ACTH = conditions: 20 mg/kg i.p.; cited from earlier work
# [6] = cited from earlier work
# [7] = in vivo; cited from earlier work
# [8] = cLogP, Advanced Chemistry Development Software Solaris V4.67; conditions: from cLogP
smiles,measurement,setting,value
"CCCCN(CC)c1nc(C)nc2c1c(C)c(C)n2-c1c(C)cc(C)cc1C.Cl [antalarmin, N-Butyl-N-ethyl-2,5,6-trimethyl-7-(2,4,6-trimethyl-phenyl)-7H-pyrrolol[2,3-d]pyrimidin-4-amine hydrochloride]",slope of linear trend dose function on cocaine intake,[1]; LgA rats,−0.32
same,decrease of cocaine intake compared to vehicle pretreatment,"[1]; LgA rats, 25 mg/kg i.p., 80 minutes before 1 hour session",13.3%
same,cocaine intake compared with vehicle,"[1]; LgA rats, 25 mg/kg i.p., hydrochloride, 25 mg/kg",significant decrease; also recorded: significantly decreased
same,slope of linear trend dose function on cocaine intake,[1]; ShA rats,0.01394
same,cocaine intake compared to vehicle pretreatment,"[1]; ShA rats, antalarmin 6.25-25 mg/kg i.p., hydrochloride",no dose significantly altered cocaine intake; also recorded: without significantly altering
same,dose-response function of cocaine self-administration,[2],did not alter
same,escalated ethanol intake,"[3]; ethanol-dependent rats, acute withdrawal, 20 mg/kg i.p.",dose-dependently reduced
same,ethanol self-administration,[3]; nondependent rats,did not influence
same,spontaneous defensive withdrawal behavior,[4],inhibit
same,intracerebroventricular CRF-induced anxiogenic-like behavior in the elevated plus maze,[5],inhibit
same,CRF-induced increases in plasma ACTH levels,plasma ACTH,blocked
same,aqueous solubility,[6],poor
same,bioavailability,[7],low
same,more hydrophobic than MPZP (fold),[8],"~30,000 fold"
same,more hydrophobic than MPZP (orders),[8],approximately 4.5 orders

# Source: US20100249138A1, “MPZP: A SMALL MOLECULE CORTICOTROPIN-RELEASING FACTOR TYPE 1 RECEPTOR (CRF1) ANTOGONIST” (priority 2007, published 2010)
